Results reported in ChEMBL document CHEMBL1201862, “PubChem BioAssay data set” (2004).
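In this assay, cells in 96-well plates receive the compound at five concentrations for 48 hours. Endpoints are linearly interpolated between the surrounding concentrations. The concentration for 50% growth inhibition is given as GI50.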 Activity calls are given as the source filed them. Rule as the data show it: active = GI50 up to about 1.1 µM and inactive = higher.

Tests used:
Assay in all cases: NCI-60 cell line screen, 48 h
SNB-75 = test system: SNB-75
SF-268 = test system: SF-268
SF-295 = test system: SF-295
KM12 = test system: KM12
MOLT-4 = test system: MOLT-4
HL-60 = test system: HL-60
UACC-62 = test system: UACC-62
IGROV-1 = test system: IGROV-1
SNB-78 = test system: SNB-78
RXF 393 = test system: RXF 393
NCI-H460 = test system: NCI-H460
CCRF-CEM = test system: CCRF-CEM
SW-620 = test system: SW-620
786-0 = test system: 786-0
HOP-18 = test system: HOP-18
SK-MEL-28 = test system: SK-MEL-28
SK-MEL-5 = test system: SK-MEL-5
SK-MEL-2 = test system: SK-MEL-2
OVCAR-5 = test system: OVCAR-5
HCC 2998 = test system: HCC 2998
OVCAR-3 = test system: OVCAR-3
OVCAR-4 = test system: OVCAR-4
XF498 = test system: XF498
HT-29 = test system: HT-29
HOP-92 = test system: HOP-92
SF-539 = test system: SF-539
KM-20L2 = test system: KM-20L2
CAKI-1 = test system: CAKI-1
LXFL 529 = test system: LXFL 529
EKVX = test system: EKVX
NCI-H226 = test system: NCI-H226
SK-OV-3 = test system: SK-OV-3
SNB-19 = test system: SNB-19
UACC-257 = test system: UACC-257
K562 = test system: K562
DMS-114 = test system: DMS-114
HCT-15 = test system: HCT-15
TK-10 = test system: TK-10
ACHN = test system: ACHN
DMS-273 = test system: DMS-273
RPMI-8226 = test system: RPMI-8226
OVCAR-8 = test system: OVCAR-8
UO-31 = test system: UO-31
A498 = test system: A498
NCI-H23 = test system: NCI-H23
HOP-62 = test system: HOP-62
A549 = test system: A549
M19-MEL = test system: M19-MEL
U-251 = test system: U-251
SN12C = test system: SN12C
HCT-116 = test system: HCT-116
M14 = test system: M14
Malme-3M = test system: Malme-3M
COLO 205 = test system: COLO 205
NCI-H522 = test system: NCI-H522

O=C(O)CCC1(Br)CCCCC(Br)C1=O (stereo not given)
GI50 (SNB-75): 35.9 µM (inactive) | GI50 (SF-268): > 100 µM (inactive) | GI50 (SF-295): > 100 µM (inactive) | GI50 (KM12): > 10 µM (inactive) | GI50 (MOLT-4): > 100 µM (inactive) | GI50 (HL-60): > 100 µM (inactive) | GI50 (UACC-62): > 100 µM (inactive) | GI50 (IGROV-1): > 100 µM (inactive) | GI50 (SNB-78): > 100 µM (inactive) | GI50 (RXF 393): 85.9 µM (inactive) | GI50 (NCI-H460): > 100 µM (inactive) | GI50 (CCRF-CEM): 95.3 µM (inactive) | GI50 (SW-620): > 100 µM (inactive) | GI50 (786-0): > 100 µM (inactive) | GI50 (HOP-18): 32.8 µM (inactive) | GI50 (SK-MEL-28): > 100 µM (inactive) | GI50 (SK-MEL-5): > 100 µM (inactive) | GI50 (SK-MEL-2): 77.4 µM (inactive) | GI50 (OVCAR-5): > 100 µM (inactive) | GI50 (HCC 2998): > 100 µM (inactive) | GI50 (OVCAR-3): > 100 µM (inactive) | GI50 (OVCAR-4): > 100 µM (inactive) | GI50 (XF498): > 100 µM (inactive) | GI50 (HT-29): > 100 µM (inactive) | GI50 (HOP-92): 32.7 µM (inactive) | GI50 (SF-539): > 100 µM (inactive) | GI50 (KM-20L2): > 100 µM (inactive) | GI50 (CAKI-1): > 100 µM (inactive) | GI50 (LXFL 529): > 100 µM (inactive) | GI50 (EKVX): > 100 µM (inactive) | GI50 (NCI-H226): > 100 µM (inactive) | GI50 (SK-OV-3): > 100 µM (inactive) | GI50 (SNB-19): > 100 µM (inactive) | GI50 (UACC-257): > 100 µM (inactive) | GI50 (K562): > 100 µM (inactive) | GI50 (DMS-114): > 100 µM (inactive) | GI50 (HCT-15): > 100 µM | GI50 (TK-10): > 100 µM (inactive) | GI50 (ACHN): > 100 µM (inactive) | GI50 (DMS-273): > 100 µM (inactive) | GI50 (RPMI-8226): > 100 µM (inactive) | GI50 (OVCAR-8): > 100 µM (inactive) | GI50 (UO-31): > 10 µM (inactive) | GI50 (A498): > 100 µM (inactive) | GI50 (NCI-H23): > 100 µM (inactive) | GI50 (HOP-62): > 100 µM (inactive) | GI50 (A549): > 100 µM (inactive) | GI50 (M19-MEL): > 100 µM (inactive) | GI50 (U-251): > 100 µM (inactive) | GI50 (SN12C): > 100 µM (inactive) | GI50 (HCT-116): > 100 µM (inactive) | GI50 (M14): > 100 µM (inactive) | GI50 (Malme-3M): > 100 µM (inactive) | GI50 (COLO 205): > 100 µM (inactive) | GI50 (NCI-H522): > 100 µM (inactive)
